According to patent US10021861B2, “Genetically modified non-human animals and methods relating to innate immune system response detection” (The Jackson Laboratory, priority 2013, dated 2018):
Marks after values point to notes of the source that are not given here.

Tests used:
Format in all cases: in vivo
[1] = test system: mouse innate immune cells; test: CD40 and CD86 expression on mouse innate immune cells from spleen of NSG mice (flow cytometry); settings: 100 μg IP, 24 hours
Procedure: (§1) (San Jose, Calif.), eBiosciences (San Diego, Calif.) or BioLegend, (San Diego, Calif.). […] Single-cell suspensions of bone marrow (BM) and spleen were prepared from engrafted mice, and whole blood was collected in heparin. Single cell suspensions of 1×10^6 cells in 50 μL or 100 μL of whole blood were washed with FACS buffer (PBS supplemented with 2% fetal bovine serum, (HyClone, Logan, Utah) and 0.02% sodium azide (Sigma, St. Louis, Mo.)) and then pre-incubated with rat anti-mouse FcR11b (clone 2.4G2, BD Biosciences) to block Fc binding. Specific antibodies were then added to the samples and incubated for 30 min at 4° C. Stained samples were then washed and fixed with 2% paraformaldehyde for cell suspensions or treated with BD FACS lysing solution for whole blood. At least 50,000 events were acquired on LSRII or FACSCalibur instruments (BD Biosciences). Data analysis was performed with FlowJo (Tree Star, Inc., Ashland, Oreg.) software. Ultra Pure lipopolysaccharide (LPS, E. coli 0111:B4 strain), and polyinosinic-polycytidylic (poly(I:C), high molecular weight, HMW) were purchased from Invivogen (San Diego, Calif.). The indicated mice were injected intraperitoneally (IP) with 100 μg of either LPS or poly(I:C). To confirm that NSG-TLR4^null mice are unable to respond to TLR4 agonists, NSG and NSG-TLR4^null mice were treated with LPS and the ability of innate immune cells to increase expression of phenotypic markers (Table I) and produce cytokines (FIG. 2) was evaluated.

[2] = test system: mouse innate immune cells; test: CD40 and CD86 expression on mouse innate immune cells from spleen of NSG-TLR4^null mice (flow cytometry)
Procedure: as §1

[3] = test system: mouse innate immune cells; test: Mouse serum cytokines by cytometric bead array in NSG-TLR4^null mice (unmanipulated or HSC-engrafted); settings: in both NSG and NSG-TLR4^null mice, 100 μg IP, 24 hours
[4] = NSG-TLR4^null mice, 100 μg IP, 24 hours, spleen

polyinosinic-polycytidylic [poly(IC)] was tested, and the “CD40 Expression, CD11b+ Macrophage” value [1] was 3909 ± 377, the “CD40 Expression, CD11c+/CD11b+ DC” value [1] was 6860 ± 1276^b and the “CD40 Expression, CD11c+/CD11b− DC” value [1] was 19935 ± 1020^b. The “CD86 Expression, CD11b+ Macrophage” value [1] was 68.27 ± 5.93, the “CD86 Expression, CD11c+/CD11b+ DC” value [1] was 540.3 ± 40^b and the “CD86 Expression, CD11c+/CD11b− DC” value [1] was 1111 ± 141^c. The “CD40 Expression, CD11b+ Macrophage” value [2, 4] was 4168 ± 104, the “CD40 Expression, CD11c+/CD11b+ DC” value [2, 4] was 5035 ± 3278^b and the “CD40 Expression, CD11c+/CD11b− DC” value [2, 4] was 16160 ± 3782^b. For the same substance, the “CD86 Expression, CD11b+ Macrophage” value [2, 4] was 77.77 ± 15.96, the “CD86 Expression, CD11c+/CD11b+ DC” value [2, 4] was 635 ± 57.7^b and the “CD86 Expression, CD11c+/CD11b− DC” value [2, 4] was 1315 ± 82^b. The “induced increases in the expression of CD40 and CD86 on mouse innate immune cells” value ([2]; between NSG and NSG-TLR4^null mice) was “similar” and the mouse cytokine response [3] was “similar”.
